Laboratory results as given in PubChem BioAssay AID1963834 (Molecular Pharmacology Branch, DTP, NCI, 2024).

System: 873145-292-R-J1-PDC complex spheroid viability
Test: Anticancer human tumor 873145-292-R-J1-PDC patient-derived renal clear cell carcinoma cell line growth inhibition [POLQ]
Details: for IC50: curve of first compound; for viability, T/C: stronger effect = lower value
Outline: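 Growth inhibition in 3D: complex spheroids (tumor PDC, HUVEC, MSC) treated with POLQ inhibitor combinations; where Cmax unknown, highest tested concentration 10 microM, except SN-38 at 1 microM.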
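Note: spheroids exposed to compounds for 7 days before viability readout.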
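Throughout, for viability, T/C: luminescence signal used as surrogate for viable cell content; 100% = DMSO vehicle control viability.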

C#Cc1c(F)ccc2cc(O)cc(-c3ncc4c(N5CC6CCC(C5)N6)nc(OCC56CCCN5CC(F)C6)nc4c3F)c12 (configuration not stated) + COC1C(OC(N)=O)C(O)C(Oc2ccc3c(O)c(NC(=O)c4ccc(O)c(CC=C(C)C)c4)c(=O)oc3c2C)OC1(C)C
IC50 (second compound 0.0316 µM): > 10 µM
IC50 (second compound 0.1 µM): > 10 µM
IC50 (second compound 0.316 µM): > 10 µM
IC50 (second compound 1 µM): > 10 µM
IC50 (second compound 3.16 µM): > 10 µM
IC50 (second compound 10 µM): > 10 µM
viability, T/C (second compound 0.0316 µM, first compound 0.0316 µM): 97.7%
viability, T/C (second compound 0.0316 µM, first compound 0.1 µM): 92.7%
viability, T/C (second compound 0.0316 µM, first compound 0.316 µM): 95.1%
viability, T/C (second compound 0.0316 µM, first compound 1 µM): 83.9%
viability, T/C (second compound 0.0316 µM, first compound 3.16 µM): 86.5%
viability, T/C (second compound 0.0316 µM, first compound 10 µM): 89.6%
viability, T/C (second compound 0.1 µM, first compound 0.0316 µM): 102%
viability, T/C (second compound 0.1 µM, first compound 0.1 µM): 97.7%
viability, T/C (second compound 0.1 µM, first compound 0.316 µM): 99%
viability, T/C (second compound 0.1 µM, first compound 1 µM): 75.7%
viability, T/C (second compound 0.1 µM, first compound 3.16 µM): 79.6%
viability, T/C (second compound 0.1 µM, first compound 10 µM): 82.7%
viability, T/C (second compound 0.316 µM, first compound 0.0316 µM): 98%
viability, T/C (second compound 0.316 µM, first compound 0.1 µM): 85.7%
viability, T/C (second compound 0.316 µM, first compound 0.316 µM): 82.1%
viability, T/C (second compound 0.316 µM, first compound 1 µM): 77.8%
viability, T/C (second compound 0.316 µM, first compound 3.16 µM): 86.5%
viability, T/C (second compound 0.316 µM, first compound 10 µM): 80.4%
viability, T/C (second compound 1 µM, first compound 0.0316 µM): 94.4%
viability, T/C (second compound 1 µM, first compound 0.1 µM): 97.1%
viability, T/C (second compound 1 µM, first compound 0.316 µM): 99.7%
viability, T/C (second compound 1 µM, first compound 1 µM): 76%
viability, T/C (second compound 1 µM, first compound 3.16 µM): 82.2%
viability, T/C (second compound 1 µM, first compound 10 µM): 88.3%
viability, T/C (second compound 3.16 µM, first compound 0.0316 µM): 92.5%
viability, T/C (second compound 3.16 µM, first compound 0.1 µM): 92.9%
viability, T/C (second compound 3.16 µM, first compound 0.316 µM): 83.4%
viability, T/C (second compound 3.16 µM, first compound 1 µM): 79.3%
viability, T/C (second compound 3.16 µM, first compound 3.16 µM): 86.4%
viability, T/C (second compound 3.16 µM, first compound 10 µM): 84%
viability, T/C (second compound 10 µM, first compound 0.0316 µM): 86.2%
viability, T/C (second compound 10 µM, first compound 0.1 µM): 95.5%
viability, T/C (second compound 10 µM, first compound 0.316 µM): 82.1%
viability, T/C (second compound 10 µM, first compound 1 µM): 86.3%
viability, T/C (second compound 10 µM, first compound 3.16 µM): 86.9%
viability, T/C (second compound 10 µM, first compound 10 µM): 82.1%
